# Values quoted from earlier work, collected in article PMC8172013, “Carboxylesterase Notum Is a Druggable Target to Modulate Wnt Signaling” (Journal of Medicinal Chemistry, 2021).
# Like-named read-outs stand apart in the source and are kept apart here.
# Experiments:
# [1] = target: T1, Notum (Homo sapiens, UniProt Q6P988)
# T1 sequence (Q6P988 20-496): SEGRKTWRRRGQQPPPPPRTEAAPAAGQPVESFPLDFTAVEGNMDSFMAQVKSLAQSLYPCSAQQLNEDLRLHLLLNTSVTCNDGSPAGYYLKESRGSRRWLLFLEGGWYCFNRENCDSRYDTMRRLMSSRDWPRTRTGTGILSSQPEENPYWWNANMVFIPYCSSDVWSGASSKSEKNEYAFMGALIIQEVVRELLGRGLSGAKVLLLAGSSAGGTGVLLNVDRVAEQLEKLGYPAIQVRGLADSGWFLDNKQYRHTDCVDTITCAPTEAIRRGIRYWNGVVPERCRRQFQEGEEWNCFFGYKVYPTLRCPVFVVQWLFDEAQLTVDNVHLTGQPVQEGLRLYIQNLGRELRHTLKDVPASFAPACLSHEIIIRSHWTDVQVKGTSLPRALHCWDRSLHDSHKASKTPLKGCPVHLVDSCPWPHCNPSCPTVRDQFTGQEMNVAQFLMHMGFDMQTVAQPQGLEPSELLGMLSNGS
# [2] = target: T1, Notum; conditions: TCF/LEF assay
# [3] = system: midshaft femur cortical thickness; conditions: mice, 3, 10, 30 mg/kg po daily, 25 days
# [4] = target: T1, Notum; conditions: OPTS assay
# [5] = mouse, 10 mg/kg po
# [6] = system: bone formation; parameters: method as in PMID 19072540, PMID 19932972; conditions: ex vivo model of bone formation
compound,measurement,setting,value
C#CCN1CCN(C(=O)ON2C(=O)C3CN(Cc4ccc(Cl)cc4)CCN3C2=O)c2ccccc21 (centres unmarked) [ABC99yne],IC50,[1]; stated in words,sub-micromolar
O=C(c1ccc(Cl)cc1)N1CCN2C(=O)N(OC(=O)N3CCOc4ccccc43)C(=O)C2C1 (centres unmarked) [ABC101],EC50,[2],> 5000 nM
same,IC50,"[1]; competitive gel-based ABPP, read-out: Notum IC50",> 10000 nM
O=C(O)CSc1ncnc2c(C3CC3)c(Cl)sc12 [Compound 26],midshaft femur cortical thickness,[3],increases in midshaft femur cortical thickness at all doses tested
Cc1csc2c(SCC(=O)O)ncnc12 [Compound 36],IC50,[4],190 nM
Cc1sc2ncnc(SCC(=O)O)c2c1Cl [Compound 37],EC50,[2],~100 nM
CCCc1sc2ncnc(SCC(=O)O)c2c1Cl [Compound 38],EC50,[2],~100 nM
Cc1c(Cl)sc2ncnc(SCC(=O)N3CC(=O)N(C)C3)c12 [Compound 40],IC50,[4],2.4 nM
same,plasma exposure,[5],low plasma exposure
Cc1cc(C(=O)O)c(C)n1C1CC1 [Compound 58],IC50,[4],6300 nM
Cc1cc(C(=O)O)c(C)n1-c1cccc(C(C)C)c1F [Compound 60],IC50,[4],150 nM
O=C(C1CCN(c2ccc(Cl)c(C(F)(F)F)c2)C1)N1CC(F)(F)C1 (centres unmarked) [Compound 62],IC50,[4],260 nM
O=c1[nH]nc(C2CCN(c3ccc(Cl)c(C(F)(F)F)c3)C2)o1 (centres unmarked) [Compound 63],IC50,[4],4200 nM
CC(C)(C)NC(=O)N1CCC[C@H]1C(=O)N1CCC(NS(=O)(=O)c2ccc(S(=O)(=O)c3ccccc3)cc2C(F)(F)F)CC1 [WAY-362692],increase in total bone area,[6],75%
